Here are results for two compounds from patent US10905660B2, “Microparticles” (NovaBiotics Limited, priority 2016, dated 2021).

Common to all, as to type: in vivo
Test [1] has as its system Pseudomonas aeruginosa ATCC 27853. The experiment in a line: Mouse IN neutropenic lung burden model, Lynovex/lactose study. Particulars: 24 h post-infection. As to the method: (§1) Assessment of Efficacy of Lynovex (Cysteamine) Prep in a Mouse IN Neutropenic model of Pseudomonas aeruginosa ATCC 27853 (Lung Burden Model)
(§2) Animals were immunosuppressed/pre-conditioned with either 200 mg/kg or 150 mg/kg cyclophosphamide. Lynovex, chemical name cysteamine, and vehicle were either prepared either as Lynovex and lactose vehicle, or Lynovex and mannitol-based vehicle (both provided by Upperton (Upperton product)). These were prepared for treatment and vehicle-control alone respectively, and in combination. Tobramycin was prepared as an inhalation formulation in lactose. All treatments were administered using a Penn Century device. Phosphate buffered saline (PBS) and Pseudomonas selective agar were required for bacterial tissue burden.
(§3) Male CD1 mice (n=6 for treatment groups, plus five in pre-treatment group, totalling 35 mice) were used in this study. On day −4, the mice were immunosuppressed/pre-conditioned with 200 mg/kg cyclophosphamide intraperitoneally; and with 150 mg/kg cyclophosphamide intraperitoneally on day −1. An infection was established with P. aeruginosa ATCC27853, with an inoculum of 5×10^6 cfu/ml, administered intranasally in a volume of 40 μl following anaesthetisation with a ketamine/xylazine anaesthetic cocktail for 15 minutes, for the Lynovex prepared in lactose study, and an inoculum of 4×10^6 for the Upperton Lynovex product.
All treatments were administered intratracheally using a Penn Century device.
Lynovex (cysteamine) was administered at 1.5 mg alone, and in combination with lactose at the following concentrations: Lynovex 0.75 mg+2.25 mg lactose powder, Lynovex 1.5 mg+1.5 mg lactose powder, Lynovex 2.25 mg+0.75 mg, along with a vehicle only control of 3 mg lactose. In addition, Tobramycin at 188 μg/dose was administered, as an inhaled formulation which was mixed with lactose to aid measurement. The treatments were administered approximately 5 minutes after infection.
(§4) The lung tissue burden of each animal, at the clinical end point of 24 h post-infection, was determined. The lungs were homogenised in 2 ml PBS, serially diluted in PBS and plated onto Pseudomonas selective agar before quantification after 24-48 h at 37° C.

Test [2] can be described thus: Mouse weights before and after infection. Particulars: P. aeruginosa infected neutropenic CD1 mice, Upperton product study (FIG. 6). As to the method:
as §3
In a different study, Lynovex was administered at the following doses: 3 mg 5% Lynovex and 3 mg 10% Lynovex. Lynovex in combination with Tobramycin as follows: 3 mg 5% Lynovex+Tobramycin 0.188 mg in 1.5 mg vehicle, 3 mg 10% Lynovex+Tobramycin 0.188 mg in 1.5 mg Vehicle (mannitol-based, provided by Upperton) and a Tobramycin only control (0.188 mg/dose in lactose vehicle). The treatments were administered once approximately 10 minutes after infection.
Additionally, mouse weights were recorded before and after infection. Mice treated with vehicle, Lynovex monotherapy or Tobramycin monotherapy lost weight following infection. […]

In test [3] the test system is Pseudomonas aeruginosa ATCC 27853. The test is described as follows: Mouse IN neutropenic lung burden model, Lynovex Upperton product (mannitol-based) study. Conditions: 0.188 mg inhalation formulation, intratracheal, 24 h post-infection; highly variable burdens. As to the method:
as §1, §2
Male CD1 mice (n=6 for treatment groups, plus five in pre-treatment group, totalling 35 mice) were used in this study. On day −4, the mice were immunosuppressed/pre-conditioned with 200 mg/kg cyclophosphamide intraperitoneally; and with 150 mg/kg cyclophosphamide intraperitoneally on day −1. […]
as §4

Consider `NC[C@H]1O[C@H](O[C@H]2[C@H](O)[C@@H](O[C@H]3O[C@H](CO)[C@@H](O)[C@H](N)[C@H]3O)[C@H](N)C[C@@H]2N)[C@H](N)C[C@@H]1O` [Tobramycin], for which the “animals that cleared the infection to below the limit of detection” value in test [1] (0.188 mg inhalation formulation, intratracheal) is recorded as 5/6. Moreover, the “lung burden compared with vehicle-treated mice” value in test [1] (0.188 mg inhalation formulation, intratracheal, CD1 mice, P=0.0097 Kruskal Wallis test) is “statistically significant reduction in lung burden”. For the same compound, the “mouse weight following infection” value in test [2] is “lost weight”. In addition, in test [3], the “average reduction in lung burden compared with vehicle-treated mice” value is recorded as 1.61 log10 cfu/g.

On to `NCCS` [Lynovex, cysteamine], for which the “mice clearing the infection to below the detection limit” value in test [1] (1.5 mg intratracheal) was 5/6; in test [1] (2.25 mg intratracheal), 4/6. Further, the “lung burden compared to vehicle” value in test [1] (1.5 mg intratracheal, P=0.0072) is “reduced the lung burden”; in test [1] (2.25 mg intratracheal, P=0.0349) it was “reduced the lung burden”.
